Measured values reported in ChEMBL document CHEMBL6103624, “Design, Synthesis, and Biological Evaluation of Marchantin C-NO Donor Hybrids for Overcoming Pgp-Mediated Drug Resistance by Targeting Lysosome” (J Med Chem, 2025).
Values belong to the compound of their own block, whether it stands above or below them. The source made the active and inactive calls. The calls are words filed in the database; no cut-off is given here.

Columns and labels:
[1] = biological target: T1, ATP-dependent translocase ABCB1 (Homo sapiens, UniProt P08183); test: Inhibition of P-gp-mediated rhodamine-123 efflux in human MCF-7/ADR cells assessed as increase in Rh123 accumulation incubated for 4 hrs by flow cytometry analysis; type: cell-based; details: at 10 to 50 nM, dose 10-50 nM
[2] = test system: NCI/ADR-RES; test: Inhibition of colony formation in human MCF7ADR cells assessed as reduction in colony growth at 40 to 50 nM incubated for 12 days by crystal violet staining based assay; type: functional, cell-based; details: dose 40-50 nM, time 12.0 day
[3] = test system: MCF7; test: Antiproliferative activity against human MCF7 cells assessed as inhibition of cell growth incubated for 48 hrs by MTT assay; type: functional, cell-based; details: MCF7, 48 h
[4] = test system: NCI/ADR-RES; test: Antiproliferative activity against human MCF7ADR cells assessed as inhibition of cell growth incubated for 48 hrs by MTT assay; type: functional, cell-based
[5] = Selectivity index, ratio of IC50 for antiproliferative activity against human MCF7 cells assessed as inhibition of cell growth to IC50 for antiproliferative activity against human MCF7ADR cells assessed as inhibition of cell growth; type: functional
[6] = test system: A549; test: Antiproliferative activity against human A549 cells assessed as inhibition of cell growth incubated for 48 hrs by MTT assay; type: functional, cell-based; details: A549, 48 h
[7] = test system: A549/TR; test: Antiproliferative activity against human A549/Taxol cells assessed as inhibition of cell growth incubated for 48 hrs by MTT assay; type: functional, cell-based
[8] = Selectivity index, ratio of IC50 for antiproliferative activity against human A549 cells assessed as inhibition of cell growth to IC50 for antiproliferative activity against human A549/Taxol cells assessed as inhibition of cell growth; type: functional
[9] = test system: HepG2; test: Antiproliferative activity against human HepG2 cells assessed as inhibition of cell growth incubated for 48 hrs by MTT assay; type: functional, cell-based; details: HepG2, 48 h
[10] = test system: PC-3; test: Antiproliferative activity against human PC-3 cells assessed as inhibition of cell growth incubated for 48 hrs by MTT assay; type: functional, cell-based; details: PC-3, 48 h
[11] = Cytotoxicity against human MCF-10A cells assessed as inhibition of cell growth incubated for 48 hrs by MTT assay; type: toxicity, cell-based
[12] = Cytotoxicity against human BEAS-2B cells assessed as inhibition of cell growth incubated for 48 hrs by MTT assay; type: toxicity, cell-based
[13] = test system: NCI/ADR-RES; test: Induction of NO release in human MCF7ADR cells at 100 uM measured for 5 hrs by Griess reagent assay; type: functional, cell-based
[14] = biological target: T1, ATP-dependent translocase ABCB1; test: Inhibition of P-gp-mediated rhodamine-123 efflux in human MCF7 cells assessed as increase in Rh123 accumulation incubated for 4 hrs by flow cytometry analysis; type: cell-based; details: mcf7, 4 h, at 10 to 50 nM, dose 10-50 nM
[15] = test system: NCI/ADR-RES; test: Induction of NO release in human MCF7ADR cells by DAF-FM DA probe based analysis; type: functional, cell-based; details: dose 50-100 nM
[16] = test system: NCI/ADR-RES; test: Induction of NO release in human MCF7ADR cells at 100 uM by Griess reagent assay; type: functional, cell-based; details: time <= 10.0 hrs
[17] = test system: NCI/ADR-RES; test: Upregulation of P-gp expression in human MCF-7/ADR cells at 25 to 100 nM incubated for 24 hrs by Western blot analysis; type: functional, cell-based; details: dose 25-100 nM
[18] = test system: MCF7; test: Upregulation of P-gp expression in human MCF7 cells at 25 to 100 nM incubated for 24 hrs by Western blot analysis; type: functional, cell-based; details: dose 25-100 nM
[19] = test system: A549/TR; test: Upregulation of P-gp expression in human A549/Taxol cells at 1 to 4 uM incubated for 24 hrs by Western blot analysis; type: functional, cell-based; details: dose 1-4 µM
[20] = test system: A549; test: Upregulation of P-gp expression in human A549 cells at 1 to 4 uM incubated for 24 hrs by Western blot analysis; type: functional, cell-based; details: dose 1-4 µM
[21] = Drug localization in lysosome of human MCF-7/ADR cells assessed as emission of yellow fluorescence incubated for 1 hr by DAPI staining based laser scanning confocal microscopic analysis; type: ADME, subcellular
[22] = Induction of NO release in lysosome of human MCF-7/ADR cells assessed as increase in green fluorescence intensity at 100 nM by Lyso-NO probe based laser scanning confocal microscopic analysis; type: subcellular; details: 0.1 µM, time 1-3 hrs
[23] = Induction of NO release in lysosome of human A549/Taxol cells assessed as increase in green fluorescence intensity at 100 nM by Lyso-NO probe based laser scanning confocal microscopic analysis; type: subcellular; details: 0.1 µM, time 1-3 hrs
[24] = test system: Lysosomal membrane; test: Induction of lysosomal membrane permeabilization in human MCF7ADR cells assessed as increase fluorescence intensity incubated for 6 hrs by LysoTracker red probe based laser scanning confocal microscopic analysis; type: subcellular; details: dose 50-100 nM
[25] = test system: NCI/ADR-RES; test: Upregulation of m-CTSD expression in human MCF7ADR cells at 50 to 100 nM incubated for 24 hrs by Western blot analysis; type: functional, cell-based; details: dose 50-100 nM
[26] = test system: NCI/ADR-RES; test: Induction of ROS production in human MCF-7/ADR cells in presence of elacridar; type: functional, cell-based
[27] = test system: NCI/ADR-RES; test: Induction of ROS production in human MCF-7/ADR cells in presence of NAC; type: functional, cell-based
[28] = test system: NCI/ADR-RES; test: Induction of apoptosis in human MCF7ADR cells at 25 to 50 nM incubated for 24 hrs by Annexin V-FITC/PI staining based flow cytometry analysis; type: functional; details: dose 25-50 nM
[29] = test system: NCI/ADR-RES; test: Induction of apoptosis in human MCF7ADR cells incubated for 24 hrs by Annexin V-FITC/PI staining based flow cytometry analysis; type: functional, cell-based; details: dose 25-50 nM
[30] = test system: NCI/ADR-RES; test: Upregulation of Bax expression in human MCF7ADR cells incubated for 24 hrs by Western blot analysis; type: functional, cell-based; details: dose 25-50 nM
[31] = test system: NCI/ADR-RES; test: Downregulation of Bcl-2 expression in human MCF7ADR cells incubated for 24 hrs by Western blot analysis; type: functional, cell-based; details: dose 25-50 nM
[32] = test system: NCI/ADR-RES; test: Induction of apoptosis in human MCF7ADR cells assessed as increase in PARP1 cleavage at 25 to 50 nM incubated for 24 hrs by Western blot analysis; type: functional, cell-based; details: dose 25-50 nM
[33] = test system: NCI/ADR-RES; test: Upregulation of Caspase-3 expression in human MCF7ADR cells at 25 to 50 nM incubated for 24 hrs by Western blot analysis; type: functional, cell-based; details: dose 25-50 nM
[34] = test system: NCI/ADR-RES; test: Inhibition of colony formation in human MCF7ADR cells assessed as reduction in colony growth at 40 nM incubated for 12 days in presence of hemoglobin by crystal violet staining based assay; type: functional, cell-based; details: time 12.0 day
[35] = test system: NCI/ADR-RES; test: Induction of cell cycle arrest in human MCF7ADR cells assessed as accumulation of cells at G2/M phase at 20 nM incubated for 24 hrs by flow cytometry analysis (reference value: 11.2%); type: functional
[36] = test system: NCI/ADR-RES; test: Induction of cell cycle arrest in human MCF7ADR cells assessed as accumulation of cells at G2/M phase at 30 nM incubated for 24 hrs by flow cytometry analysis (reference value: 11.2%); type: functional
[37] = test system: NCI/ADR-RES; test: Induction of cell cycle arrest in human MCF7ADR cells assessed as accumulation of cells at G2/M phase at 40 nM incubated for 24 hrs by flow cytometry analysis (reference value: 11.2%); type: functional
[38] = test system: NCI/ADR-RES; test: Antitumor activity against human MCF7ADR cells xenografted in BALB/c mouse at 1.25 to 5 mg/kg, ip measured for 21 days; type: functional, organism-based; details: dose 1.25-5 mg/kg, time 21.0 day
[39] = test system: NCI/ADR-RES; test: Antitumor activity against human MCF7ADR cells xenografted in BALB/c mouse at 1.25 mg/kg, ip measured for 21 days; type: functional, organism-based; details: time 21.0 day
[40] = test system: NCI/ADR-RES; test: Antitumor activity against human MCF7ADR cells xenografted in BALB/c mouse assessed as inhibition of tumor volume at 5 mg/kg, ip measured for 21 days; type: functional; details: 504 h, time 21 day
[41] = test system: NCI/ADR-RES; test: Antitumor activity against human MCF7ADR cells xenografted in ip dosed BALB/c mouse assessed as decrease in ki67 expression measured for 21 days; type: functional, organism-based; details: dose 1.25-5 mg/kg, time 21.0 day
[42] = Toxicity in BALB/c mouse xenografted with human MCF7ADR cells assessed as change in body weight at 1.25 to 5 mg/kg, ip measured for 21 days; type: organism-based; details: in vivo, 504 h, dose 1.25-5 mg/kg, time 21 day
[43] = Toxicity in BALB/c mouse xenografted with human MCF7ADR cells assessed as lung damage at 1.25 to 5 mg/kg, ip measured for 21 days by H and E staining based analysis; type: organism-based; details: in vivo, 504 h, dose 1.25-5 mg/kg, time 21 day
[44] = Toxicity in BALB/c mouse xenografted with human MCF7ADR cells assessed as kidney damage at 1.25 to 5 mg/kg, ip measured for 21 days by H and E staining based analysis; type: organism-based; details: in vivo, 504 h, dose 1.25-5 mg/kg, time 21 day
[45] = Toxicity in BALB/c mouse xenografted with human MCF7ADR cells assessed as spleen damage at 1.25 to 5 mg/kg, ip measured for 21 days by H and E staining based analysis; type: organism-based; details: in vivo, 504 h, dose 1.25-5 mg/kg, time 21 day
[46] = Toxicity in BALB/c mouse xenografted with human MCF7ADR cells assessed as liver damage at 1.25 to 5 mg/kg, ip measured for 21 days by H and E staining based analysis; type: organism-based; details: in vivo, 504 h, dose 1.25-5 mg/kg, time 21 day
[47] = Toxicity in BALB/c mouse xenografted with human MCF7ADR cells assessed as heart damage at 1.25 to 5 mg/kg, ip measured for 21 days by H and E staining based analysis; type: organism-based; details: in vivo, 504 h, dose 1.25-5 mg/kg, time 21 day
[48] = test system: MCF7; test: Induction of NO release in human MCF7 cells at 100 uM measured for 5 hrs by Griess reagent assay; type: functional, cell-based

T1 sequence (P08183 whole entry): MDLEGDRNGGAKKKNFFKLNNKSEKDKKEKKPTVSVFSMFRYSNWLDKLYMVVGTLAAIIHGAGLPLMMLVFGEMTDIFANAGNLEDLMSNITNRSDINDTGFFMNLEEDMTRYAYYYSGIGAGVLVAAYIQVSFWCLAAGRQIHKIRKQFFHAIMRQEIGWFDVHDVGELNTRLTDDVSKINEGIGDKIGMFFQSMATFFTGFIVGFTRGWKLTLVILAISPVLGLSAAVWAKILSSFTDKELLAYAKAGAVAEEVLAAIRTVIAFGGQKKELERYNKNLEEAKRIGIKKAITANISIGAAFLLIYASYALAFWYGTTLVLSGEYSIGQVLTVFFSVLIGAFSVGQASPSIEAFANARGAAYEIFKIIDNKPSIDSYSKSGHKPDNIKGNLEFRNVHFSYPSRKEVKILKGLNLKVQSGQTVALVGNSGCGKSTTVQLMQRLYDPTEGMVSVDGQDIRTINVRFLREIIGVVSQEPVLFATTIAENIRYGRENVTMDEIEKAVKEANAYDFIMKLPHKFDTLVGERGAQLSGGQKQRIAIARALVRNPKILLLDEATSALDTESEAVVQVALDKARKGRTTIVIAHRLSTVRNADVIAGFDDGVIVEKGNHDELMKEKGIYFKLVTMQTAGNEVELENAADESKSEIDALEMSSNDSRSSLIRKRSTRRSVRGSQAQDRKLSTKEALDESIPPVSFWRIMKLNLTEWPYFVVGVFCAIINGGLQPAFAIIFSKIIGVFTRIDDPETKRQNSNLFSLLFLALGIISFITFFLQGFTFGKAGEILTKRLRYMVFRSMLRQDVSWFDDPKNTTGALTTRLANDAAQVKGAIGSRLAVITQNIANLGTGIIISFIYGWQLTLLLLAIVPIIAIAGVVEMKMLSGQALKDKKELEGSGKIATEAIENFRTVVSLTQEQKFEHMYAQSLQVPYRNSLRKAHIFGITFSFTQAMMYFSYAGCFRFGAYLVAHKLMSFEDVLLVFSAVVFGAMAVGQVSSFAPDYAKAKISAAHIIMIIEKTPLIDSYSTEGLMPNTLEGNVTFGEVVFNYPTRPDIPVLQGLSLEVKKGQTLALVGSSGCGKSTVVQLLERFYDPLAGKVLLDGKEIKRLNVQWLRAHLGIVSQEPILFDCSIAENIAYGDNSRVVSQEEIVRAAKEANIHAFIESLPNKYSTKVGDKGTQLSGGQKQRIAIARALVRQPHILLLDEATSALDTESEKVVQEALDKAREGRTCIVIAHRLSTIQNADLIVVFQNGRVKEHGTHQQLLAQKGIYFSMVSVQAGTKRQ

- inhibition (INH) [1]: Dose-dependent-effect
- IC50 [3]: 21.2 µM
- IC50 [6]: 23.8 µM
- IC50 [7]: 1.43 µM
- IC50 [9]: 6.57 µM
- IC50 [10]: 3.36 µM
- inhibition (INH) [14]: Dose-dependent-effect
- Drug uptake [21]: Active
- Activity [22]: Time-dependent-effect
- Activity [23]: Time-dependent-effect
- Activity [24]: Dose-dependent-effect
SMILES: O=S(=O)(c1ccccc1)c1c(OCCCOc2cccc3c2Oc2cccc(c2)CCc2ccc(O)c(c2)Oc2ccc(cc2)CC3)no[n+]1[O-]
- inhibition [2]: Active
- IC50 [4]: 24 nM
- Ratio IC50 [5]: 883
- Ratio IC50 [8]: 17
- IC50 at 48 h [11]: 14.3 µM
- IC50 at 48 h [12]: 14.8 µM
- Activity [13]: Active
- Activity [15]: Dose-dependent-effect
- Activity [16]: Time-dependent-effect
- Activity [17]: Active
- Activity [18]: inactive
- Activity [19]: Active
- Activity [20]: Active
- Activity [25]: Active
- Activity [26]: Active
- Activity [27]: Active
- Activity [28]: 8.6%
- Activity [29]: Dose-dependent-effect
- Activity [30]: Dose-dependent-effect
- Activity [31]: Dose-dependent-effect
- Activity [32]: Active
- Activity [33]: Active
- inhibition [34]: Active
- Activity [35]: 18.1%
- Activity [36]: 20.3%
- Activity [37]: 25.3%
- Activity [38]: Active; Displayed Strong Antitumor Activity Than Ptx
- Activity [39]: Active
- inhibition in vivo at 5 mg/kg [40]: 62.7%
- Activity [41]: Dose-dependent-effect
- Activity [42]: Non-toxic
- Activity [43]: Non-toxic
- Activity [44]: Non-toxic
- Activity [45]: Non-toxic
- Activity [46]: Non-toxic
- Activity [47]: Non-toxic

SMILES: O=C(/N=c1\c[n+](-c2ccccc2)[n-]o1)Oc1cccc2c1Oc1cccc(c1)CCc1ccc(O)c(c1)Oc1ccc(cc1)CC2
- IC50 [3]: > 20 µM
- IC50 [4]: > 20000 nM
- IC50 [6]: > 40 µM
- IC50 [9]: > 20 µM
- IC50 [10]: > 20 µM
- Activity [48]: inactive
- Activity [13]: inactive
- Activity [16]: Time-dependent-effect

- IC50 [3]: 15.2 µM
- IC50 [6]: > 40 µM
- IC50 [7]: 12.1 µM
- IC50 [9]: > 20 µM
- IC50 [10]: 4.41 µM
SMILES: O=S(=O)(c1ccccc1)c1c(OCCOCCOc2cccc3c2Oc2cccc(c2)CCc2ccc(O)c(c2)Oc2ccc(cc2)CC3)no[n+]1[O-]
- IC50 [4]: 1010 nM
- Ratio IC50 [5]: 15
- Ratio IC50 [8]: >3
- IC50 at 48 h [11]: < 2.5 µM
- IC50 at 48 h [12]: 5.14 µM
